From patent publication US8748491B2, “Dietary and pharmaceutical compositions containing tricyclic diterpenes and their derivatives and their uses” (priority 2006, dated 2014)

Assays:
mouse = assay: Light dark box test; assay type: in vivo; settings: for NUMBER OF CROSSINGS % change from control: mouse
Text: The method, which detects anxiolytic activity, follows that described by Crawley, 1981 Pharmacol. Biochem. Behav., 15:695-699. Anxiolytics increase the time spent in the light compartment.
Animals were placed into the light compartment of a 2-compartment box with one half light and open (25×27×27 cm) and the other half dark and closed (20×27×27 cm). The time spent in each compartment as well as the number of times the animal crosses from one side to the other is scored during a 3-minute test. 15 mice were studied per group. The test was performed blind.
Carnosic acid was evaluated at 3 doses (100, 200, 400 mg/kg BW), administered by oral gavage (p.o.) 24, 5 and 1 hour before the test, and compared with a vehicle control group (corn oil). Carnosic acid was dissolved in corn oil (“vehicle”). Clobazam (32 mg/kg p.o.), administered 1 hour before the test, was used as reference substance. Mice in this group received additional administrations of vehicle at 24 and 5 hours before the test in order to maintain experimental blinding.

[1] = target: T1, Monoamine oxidase B (MAO-B) (Homo sapiens, UniProt P27338); assay: Monoamine oxidase B inhibition (benzylamine substrate, H2O2/vanillic acid/HRP readout); assay type: biochemical
T1 sequence (P27338 1-520): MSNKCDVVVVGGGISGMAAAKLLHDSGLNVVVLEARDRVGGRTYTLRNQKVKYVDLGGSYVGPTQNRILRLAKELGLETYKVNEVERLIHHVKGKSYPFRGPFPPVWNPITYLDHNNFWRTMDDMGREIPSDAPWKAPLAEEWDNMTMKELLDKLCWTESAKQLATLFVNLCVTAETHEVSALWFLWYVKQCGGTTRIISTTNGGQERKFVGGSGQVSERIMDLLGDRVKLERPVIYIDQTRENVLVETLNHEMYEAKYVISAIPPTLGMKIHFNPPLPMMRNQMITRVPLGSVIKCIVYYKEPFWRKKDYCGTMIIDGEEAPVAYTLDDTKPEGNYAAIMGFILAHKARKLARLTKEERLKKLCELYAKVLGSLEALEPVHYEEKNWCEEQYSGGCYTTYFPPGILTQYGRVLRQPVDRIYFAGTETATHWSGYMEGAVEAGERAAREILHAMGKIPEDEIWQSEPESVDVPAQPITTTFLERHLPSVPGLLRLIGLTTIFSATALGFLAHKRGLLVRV
Method: The organic amines p-tyramine or benzylamine were used as substrates for the Monoamine oxidase A (MAO-A) and B (MAO-B) enzymes respectively. The H2O2 produced by this reaction was quantified by reaction with vanillic acid, catalysed by horse radish peroxidase (HRP).
The reactions were carried out in polystyrene microtitre plates. The MAO enzymes (final concentration 2 U/ml) were mixed with either p-tyramine (Sigma, final concentration 0.5 mM) or benzylamine (Sigma, final concentration 0.5 mM) as appropriate and the chromogenic solution (containing vanillic acid (Fluka), 4-aminoantipyrine (Fluka) and horse radish peroxidase (Sigma), final concentrations 0.25 mM, 0.125 mM and 1 U/ml respectively) in 0.2 M potassium phosphate buffer, pH 7.6. The reactions were followed in a microtitre plate absorbance reader e.g. Spectramax M5 (Molecular Devices Corporation). Absorbance readings at 495 nm were taken every 15 seconds for 40 minutes and the initial reaction velocities calculated by linear regression using SOFTmaxPro (Molecular Devices Corporation).
The effect of tricyclic diterpenes and their derivatives according to formula I on the monoamine oxidase enzymes was determined by their inclusion in the assay at a range of concentrations between 0.03 and 100 μM for 10 minutes prior to and during the incubation with substrate. To determine the effect of the compounds on the HRP catalyzed portion of the reaction, the MAO enzyme was replaced by H2O2 (Molecular Probes, final concentration 0.2 mM). The reactions containing MAO-A and MAO-B were both inhibited by tricyclic diterpenes and their derivatives according to formula I in a dose-dependent manner, whilst the control reaction, was unaffected. The measured IC50 values for inhibition of monoamine oxidase activity by carnosic acid, carnosic acid-12-methyl ether and 20-deoxo-carnosol are shown in Table 3.

[2] = target: T2, human dopamine transporter (hDAT) (Homo sapiens, UniProt Q01959); assay: Inhibition of dopamine reuptake into transfected CHO-Ki/hDAT cells; assay type: cell-based; settings: 50 nM [3H]Dopamine
T2 construct: expressed in transfected cells; host or cells: CHO-Ki (so in the source)
T2 sequence (Q01959 whole entry): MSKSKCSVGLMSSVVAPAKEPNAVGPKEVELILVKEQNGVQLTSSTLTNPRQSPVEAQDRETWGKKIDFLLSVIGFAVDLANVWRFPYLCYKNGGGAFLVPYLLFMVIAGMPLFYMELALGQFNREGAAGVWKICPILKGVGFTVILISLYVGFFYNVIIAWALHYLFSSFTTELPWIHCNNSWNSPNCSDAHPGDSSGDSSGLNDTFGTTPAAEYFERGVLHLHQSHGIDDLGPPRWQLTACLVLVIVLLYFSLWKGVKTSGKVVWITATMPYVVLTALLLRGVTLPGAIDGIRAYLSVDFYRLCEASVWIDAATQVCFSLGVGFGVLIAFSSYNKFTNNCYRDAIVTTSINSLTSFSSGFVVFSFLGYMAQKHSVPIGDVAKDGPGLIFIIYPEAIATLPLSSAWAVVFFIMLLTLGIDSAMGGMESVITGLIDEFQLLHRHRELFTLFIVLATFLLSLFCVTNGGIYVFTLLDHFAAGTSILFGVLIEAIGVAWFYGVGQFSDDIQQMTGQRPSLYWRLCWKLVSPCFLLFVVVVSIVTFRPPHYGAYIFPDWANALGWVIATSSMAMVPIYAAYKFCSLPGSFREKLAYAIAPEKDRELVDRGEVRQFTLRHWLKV
Method: CHO-Ki/hDAT cells expressing the human dopamine transporter (hDAT) were plated before the assay. Cells (2×10^5/ml) were incubated with carnosic acid and/or vehicle in modified Tris-HEPES buffer, pH 7.1, at 25° C. for 20 minutes before addition of 50 nM [^3H]Dopamine for 10 minutes. Specific signal was determined in the presence of 10 μM nomifensine (dopamine reuptake inhibitor). Cells were then solubilised with 1% SDS lysis buffer. Reduction of [^3H]Dopamine uptake by 50 per cent or more (≧50%) relative to vehicle controls indicated significant inhibitory activity.

## CC(C)c1cc2c(c(O)c1O)[C@@]1(C(=O)O)CCCC(C)(C)[C@@H]1CC2 [Carnosic acid, carnosic acid]
mouse; 100 mg/kg p.o. −24, −5, −1 h
  NUMBER OF CROSSINGS % change from control: +17%
mouse; 200 mg/kg p.o., −24, −5, −1 h
  NUMBER OF CROSSINGS % change from control: −21%
mouse; 400 mg/kg p.o. −24, −5, −1 h
  NUMBER OF CROSSINGS % change from control: +23%
mouse; mouse, 100, 200 and 400 mg/kg p.o.
  number of crossings (in words): did not affect
[1]
  IC50: 8.6 ± 0.6 µM
[2]
  IC50: 15 µM
